Assay results as given in patent publication US20240336657A1, “G-ALPHA-S PEPTIDE INHIBITORS AND USES THEREOF” (The Regents of the University of California, priority 2021, published 2024).
Positions of bridges follow the written chain, without caps; N, C: chain ends. Non-standard residues stand in square brackets, D forms with d. Residues, ends and D or L forms follow the SMILES beside them.

Assays:
Gαi1/Gβγ = target: T1, Gαi1/Gβγ (Homo sapiens, UniProt P63096); assay: BRET2 based Gα Gβγ interaction assay in HEK293 cells (M2R, acetylcholine); assay type: cell-based; conditions: pretreated 25 μM, 16 hours, 100 nM acetylcholine
T1 construct: expressed in transfected cells; host or cells: HEK293 cells
From the text: We next tested GD20-F10L in HEK 293 cells overexpressing both β2AR and Gαs/Gβγ. Rluc8 was inserted within a flexible loop region between the αB-αC helices of Gαs (FIG. 23J) and GFP2 was inserted at the N-terminus of Gγ2 to capture Gαβγ heterotrimer interaction. A decrease in the bioluminescence resonance energy transfer (BRET2) signal between labeled G protein subunits can detect Gαβγ dissociation (FIG. 21C) in live cells (Olsen et al., 2020). We examined Gαβγ trimer dissociation elicited by the GPCR agonist at various concentrations of cyclic peptides by monitoring the net BRET2 signal. In cells that were transiently transfected with a Gαs-coupled β2-adrenergic receptor (β2AR), GαsShort_Rluc8, […], and Gγ-GFP2, ISO application stimulated a basal net BRET response. […] This effect was GD20-F10L dose dependent (FIGS. 21D-21E). […] To assess the specificity of GD20-F10L at the G protein level, we tested it against the Gαi/Gβγ interaction. […]
8 hours after plating in 96-well assay plates, media was replaced with 100 μL of cyclic peptide dilutions in DMEM with 1% dialyzed FBS. […] Plates were then read in a TECAN Spark 20 M plate reader with 395 nm (RLuc8-coelenterazine 400a) and 510 nm (GFP2) emission filters, at integration times of 1 s per well. Plates were read serially six times, and measurements from the fourth read were used in all analyses. […]

WT Gαs = WT Gαs (Homo sapiens, UniProt P63092); assay: Adenylyl cyclase activity assay in membranes of GNAS KO HEK293 cells transfected with WT Gαs; assay type: biochemical; set-up: expressed in transfected cells; host or cells: GNAS KO HEK293 cells (membranes); conditions: WT Gαs reintroduced by transient transfection
From the text: To further assess the cellular specificity of GN13, we designed a GN13-resistant Gαs mutant based on structural analysis. […] We reasoned that mutating this serine residue to a bulky residue should create a drug-resistant Gαs mutant that blocks the GN13-Gαs interaction but would have little effect on adenylyl cyclase activation. […] By contrast, when the drug resistant mutant Gαs S275L was reintroduced into GNAS KO cells, the inhibitory effect of GN13 was abolished (FIG. 3I), providing further evidence that the observed pharmacological activity is due to GN13 binding to the switch II/α3 pocket in Gαs.
GN13 inhibition of Gαs proteins in HEK293 cell membranes (FIG. 17F and FIG. 18F).
a. Cell membrane preparation: HEK293cells, GNAS KO HEK293 cells were plated two day before transfection at a density of 1M cells per 10 cm plate. […] The protein concentrations were measured using BCA, and were normalized to 750 μg/mL. […] The cAMP concentrations were measured by the LANCE Ultra cAMP kit. […]
A cAMP standard curve was generated in the same plate using the 50 μM cAMP standard in the kit. […] 10 μL of each diluted sample was mixed with 5 μL of 4× Eu-cAMP tracer and 5 μL of 4× ULight-anti-cAMP in a white, opaque Optiplate-384 microplate, incubated for 1 hour at room temperature, and the time-resolved fluorescence resonance energy transfer (TR-FRET) signals were read on a Spark 20M plate reader. […]

Sequence of WT Gαs (P63092 whole entry): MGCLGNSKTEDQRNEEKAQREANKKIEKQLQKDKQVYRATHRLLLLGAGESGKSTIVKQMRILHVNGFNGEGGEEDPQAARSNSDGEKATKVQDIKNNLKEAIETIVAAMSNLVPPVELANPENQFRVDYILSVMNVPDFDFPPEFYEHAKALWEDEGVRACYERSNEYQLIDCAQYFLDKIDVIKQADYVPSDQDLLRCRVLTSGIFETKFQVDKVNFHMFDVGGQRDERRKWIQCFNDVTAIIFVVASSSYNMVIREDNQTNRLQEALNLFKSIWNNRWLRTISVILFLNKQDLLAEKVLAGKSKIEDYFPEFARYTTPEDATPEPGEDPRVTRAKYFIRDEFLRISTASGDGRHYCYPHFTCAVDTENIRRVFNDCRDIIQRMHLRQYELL
T1 sequence (P63096 whole entry): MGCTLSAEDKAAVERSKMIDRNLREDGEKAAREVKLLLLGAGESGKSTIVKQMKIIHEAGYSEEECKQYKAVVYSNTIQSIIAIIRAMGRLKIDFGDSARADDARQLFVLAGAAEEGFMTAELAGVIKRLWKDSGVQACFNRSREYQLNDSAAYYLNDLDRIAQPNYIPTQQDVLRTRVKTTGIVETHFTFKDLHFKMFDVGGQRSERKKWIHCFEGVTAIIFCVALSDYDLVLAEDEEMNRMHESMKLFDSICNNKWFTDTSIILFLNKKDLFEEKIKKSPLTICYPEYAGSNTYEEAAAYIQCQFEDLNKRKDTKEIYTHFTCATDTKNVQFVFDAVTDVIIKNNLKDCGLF

SMILES | net BRET2 signal change between Gαi and Gβγ after acetylcholine (Gαi1/Gβγ) | inhibition of isoproterenol-mediated cAMP production in cell membranes (WT Gαs)
CC[C@H](C)[C@@H]1NC(=O)[C@H](CC(C)C)NC(=O)[C@@H](Cc2ccc(O)cc2)NC(=O)CSC[C@@H](C(=O)NCC(N)=O)NC(=O)[C@@H]2CCCN2C(=O)[C@H](CC(C)C)NC(=O)[C@H](CC(N)=O)NC(=O)[C@H](CC(C)C)NC(=O)[C@H](C)NC(=O)[C@H](Cc2c[nH]c3ccccc23)NC(=O)[C@H](CCC(N)=O)NC(=O)[C@H](CCCNC(=N)N)NC(=O)[C@H](Cc2ccccc2)NC(=O)[C@H]([C@@H](C)O)NC1=O [GD20-F10L] ({CH2CO}-[dY]LITFRQWALNLPCG-NH2; thioether N-14) | did not induce a net BRET2 signal change | –
CC[C@H](C)[C@@H]1NC(=O)[C@H](C)NC(=O)[C@H](Cc2ccc(O)cc2)NC(=O)[C@H](C(C)C)NC(=O)[C@H](CO)NC(=O)[C@H](CCC(=O)O)NC(=O)[C@H](Cc2ccccc2)NC(=O)[C@@H](Cc2ccc(O)cc2)NC(=O)CSC[C@@H](C(=O)NCC(N)=O)NC(=O)[C@H](CC(C)C)NC(=O)[C@H]([C@@H](C)O)NC(=O)CNC(=O)[C@H](Cc2c[nH]c3ccccc23)NC1=O [GN13] ({CH2CO}-[dY]FESVYAIWGTLCG-NH2; thioether N-13) | – | able to inhibit
